{
  "source": "patent US12527813B2",
  "about": "“Methods to stabilize and reverse atherosclerotic lesions by sulfated polysaccharides” (Calroy Health Sciences, LLC, priority 2017, dated 2026)",
  "origin": "cited, not measured here",
  "system": "lipid-rich necrotic core",
  "conditions": "24 months",
  "data": [
    {"smiles": "CC(C)c1nc(N(C)S(C)(=O)=O)nc(-c2ccc(F)cc2)c1/C=C/[C@@H](O)C[C@@H](O)CC(=O)O", "note": "[rosuvastation]", "values": [
      {"measurement": "lipid-rich necrotic core reduced, low dose", "setting": "5 mg/day", "result": 27, "unit": "%"},
      {"measurement": "lumen size and artery stenosis change", "result": "virtually no change"},
      {"measurement": "lipid-rich necrotic core reduced, all patients", "setting": "33 patients, low or high dose", "result": "about 25%"},
      {"measurement": "lipid-rich necrotic core reduced, high dose", "setting": "40/80 mg/day", "result": 19, "unit": "%"}
    ]}
  ]
}
